Experimental data published in publication PMC10759609, “A novel PDPN antagonist peptide CY12-RP2 inhibits melanoma growth via Wnt/β-catenin and modulates the immune cells” (Journal of Experimental & Clinical Cancer Research : CR, 2024).
Peptide text beside a SMILES is read from it.

Legend:
A375 cells = experiment: Wound healing (migration), A375; assay type: cell-based; settings: wound healing, 0, 5, 25 μM, 24 h or 48 h
Description: (§1) A375 GFP, A875 GFP, A375 PDPN^−/−, and A875 PDPN^+/+ cells were all seeded in 12-well plates at a density of 5 × 10^5 cells/well. When the cells reached 100% confluence the next day, the straight wound was scraped in each cultured well with a 20 µL pipette tip. Then the cells were washed repeatedly with complete DMEM to remove the cellular debris, and the medium was changed to a low serum medium containing 0.05% FBS. The scratch-treated cells were subsequently cultured for an additional indicated time and imaged at 0 h, 12 h, 24 h and 48 h. Quantification of wound closure was accomplished by measuring the distance between the phase contrast images’ anterior edges of the contralateral surfaces using ImageJ software. As for peptide (CY12-RP2) function experiments, images of phase contrast for A375 GFP and A875 GFP cells were captured at 0 h before peptide administration. The cells were then treated with CY12-RP2 (0 μM, 5 μM, 25 μM) for 24 h or 48 h, and then images were acquired again. Handling of the experimental results were carried out as previously described.

PDPN in A375 cells = experiment: Immunofluorescence binding/co-localization with PDPN, A375; assay type: cell-based; settings: 5 μM, 10 h, 37 ℃
Description: Immunofluorescence analysis was used for antigen localization and quantification. For PDPN immunofluorescence staining, melanoma cells (A375, A875) were seeded in coverslips, cultured for 24 h, and fixed using 4% paraformaldehyde for 15 min at room temperature (RT). The cells were then permeabilized with 0.2% Triton X-100 in PBS for 10 min. Cells were blocked using 1% bovine serum albumin (BSA) in PBS for 30 min at RT, and incubated with the primary antibody overnight at 4 ℃. Afterwards, cells were washed three times with PBS containing 0.01% Triton X-100 for 5 min, and incubated with Alexa Fluor 568–conjugated secondary antibodies at RT for 1 h. Lastly, the nuclei were dyed with 4’,6-diamidino-2-phenylindole (DAPI) for 5 min at RT, and the slides were imaged using a NIKON laser scanning confocal microscope. To further verify the specificity binding ability of CY12-RP2 with PDPN, immunofluorescence was detected for analysis in melanoma cells. Briefly, A375 or A875 cells were incubated with CY12-RP2 at a concentration of 5 μM for 10 h at 37 ℃, and then washed with DMEM to remove the unbound peptide. The anti-PDPN primary antibody was then incubated for 4 h at RT. Further experimental procedures were performed as described above. […]

A875 cells = experiment: Wound healing (migration), A875; assay type: cell-based; settings: wound healing, 0, 5, 25 μM, 24 h or 48 h
Description: as §1

A875 cellular spheroids = experiment: 3D spheroid diameter, A875; assay type: cell-based; settings: only at 200 μM, 5 days
Description: (§2) A375 and A875 cells were collected and suspended in Matrigel (Corning) with a density of 1.0 × 10^7 cells per mL. 3D spheroids were fabricate using cell-processing system that have two pumps. One pump was loaded with Matrigel and another with fluorocarbon oil (3 M NOVEC, HFE-7000). The flow rate of Matrigel was 20 μL/min and the fluorocarbon oil rate was 30 μL/min. The 3D spheroids were incubated at 37 °C with 5% CO2 after printing. Culturing medium was DMEM medium supplemented with 10% FBS, and 100 IU of penicillin and […] streptomycin. The medium was changed every 3 days. Afterward, the 3D spheroids were harvested for drug analysis.
(§3) Prepared melanoma cells spheroids were plated in 48-well plates. Following incubation for 3 days, the spheroids were exposed to different concentrations (0, 50, 100 and 200 μM) of CY12-RP2, and changes in spheroid diameter were detected after 5 days of treatment. Additionally, melanoma cell spheroids were treated with various concentrations of CY12-RP2 as described previously, and after 72 h, the spheroids were stained for immunofluorescence with caspase 3 primary antibody. The specific experimental procedures refer to the following immunofluorescence analysis. Additionally, we co-cultured peptide-stimulated PBMC with spheroids to determine the tumor-killing ability of activated PBMC.

[1] = system: B16F10-Luc lung metastasis; assay type: in vivo, BALB/c mice; settings: 25 and 100 mg/kg i.v. every two days, 15 days
Description: For pulmonary metastasis assays, 6- to 8-week-old female BALB/c mice were administered with 5 × 10^5 B16F10-Luc cells via tail vein to establish an experimental pulmonary metastasis model of melanoma. CY12-RP2 was administered to the mice intravenously at high and low doses (25 mg/kg and 100 mg/kg) every two days, and the mice were sacrificed after 15 days of treatment. Pulmonary metastases were evaluated using bioluminescence imaging on the 2nd, 5th, 10th, 15th and 20th day after B16F10-Luc cells injection. Subsequently, the BALB/c mice were sacrificed, and the organs including the heart, liver, spleen, lung, and kidney were collected and imaged for evaluation of micrometastases. The xenografts and organs were kept in a 4% paraformaldehyde solution for subsequent histological assays.

A375 cellular spheroid = experiment: 3D spheroid diameter, A375; assay type: cell-based; settings: A375 spheroids; 0, 50, 100, 200 μM, 5 days
Description: as §2, §3

`CC(C)C[C@H](NC(=O)[C@H](Cc1ccc(O)cc1)NC(=O)[C@@H](N)[C@@H](C)O)C(=O)N[C@@H](CS)C(=O)N[C@H](C(=O)N[C@@H](C)C(=O)N[C@@H](CS)C(=O)N[C@@H](CC(=O)O)C(=O)N[C@@H](Cc1ccc(O)cc1)C(=O)N[C@H](C(=O)N[C@@H](Cc1c[nH]cn1)C(=O)N[C@@H](Cc1c[nH]cn1)C(=O)O)[C@@H](C)O)[C@@H](C)O` [CY12-RP2] (H-TYLCTACDYTHH-OH; N-terminus and C-terminus assumed) was tested, and the migration (A375 cells) was “inhibited migration at the corresponding time both in A375 and A875 cells, but A375 cells were more susceptible”, the “fluorescence and co-localization with PDPN” value (PDPN in A375 cells) was “strong fluorescence and co-localization” and the migration (A875 cells) was “inhibited migration at the corresponding time both in A375 and A875 cells”. The relative spheroid diameter (A875 cellular spheroids) was “only a high concentration of CY12-RP2 (200 μM) could decrease the diameter”, the pulmonary metastases ([1]; bioluminescence, vs control) was “significantly fewer pulmonary metastases” and the “size of nodules and frequency of metastases in the lungs” value ([1]; ex vivo organ bioluminescence) was “significant reduction”. The “metastatic nodules in the lung” value ([1]; representative nodule images) was “significantly reduced” and the relative spheroid diameter (A375 cellular spheroid) was “significantly diminished with increasing CY12-RP2 concentration”.
